The subject of series [1] is RSV (Group A, Long Strain). As to the kind of experiment: Antiviral cytopathic effect (CPE) protection assay, MTT readout. The series is classed as cell-based. To be noted: human respiratory syncytial virus, 96 h; HEp-2 cells, 0.2 MOI RSV, 4 days incubation, protection from CPE by MTT. The protocol:
HEp-2 cells and RSV (Group A, Long Strain) were obtained from the American Type Culture Collection (Manassas, Va.).
A cytopathic effect (CPE) protection assay was performed to determine the ability of a compound to protect the cells from viral infection and thus the CPE induced by viral infection. 96-Well plates were first seeded with 3×10^3 HEp-2 cells per well in Dulbecco's modified Eagle's medium (DMEM) containing 10% fetal bovine serum (FBS). One day after the cells were seeded, they were preincubated with serial dilutions of compounds prepared in 100 μL assay medium (DMEM mixed with F12 medium at a 1:1 ratio, supplemented with 2% FBS and 1 mM sodium pyruvate) for 1 hour at 37° C. 100 μL of assay medium containing 0.2 multiplicity of infection (MOI) of RSV was then added to each well of cells. In addition to wells containing infected cells incubated with compounds, each plate also contained replicates of two kinds of controls: (1) Virus control contained cells infected with 0.2 MOI of RSV in assay medium, (2) Uninfected cell control contained cells incubated with assay medium only. After 4 days of incubation at 37° C., the viability of cells was assessed using MTT (Thiazolyl blue tetrazolium bromide, Sigma). A stock solution of MTT, at a concentration of 4 mg/mL in phosphate-buffered saline, was added to all wells at 25 μL per well. Plates were further incubated for 4 hours, and each well was then treated with 50 μL of a solution containing 20% sodium dodecyl sulfate (SDS) and 0.02 N HCl. After an overnight incubation, the plates were measured on a BioTek® microtiter plate reader at wavelengths of 570 nm and 650 nm. The MTT detection is based on the fact that viable (uninfected) cells can reduce the tetrazolium salts into colored formazan products, which can then be quantitated by spectrometry. Based on the spectrometric absorbance of each sample, the percent of protection from CPE, which is an indicator of protection from viral infection, can be calculated for each compound and the 50% effective concentrations (EC50) can be calculated using a nonlinear regression curve fitting equation provided by the GraphPad Prism® 4 software.
Compounds were tested to determine both their antiviral and toxicity to determine their therapeutic window. Determination of the EC50 and TD50 of these active compounds were repeated one additional time to confirm the window.
(Protection from cytopathic effect is a common read-out in antiviral testing.)

Another series concerns HEp-2 cells. As to the kind of experiment: Cytotoxicity assay (MTT) in parallel with the antiviral assay. The series is classed as cell-based. The protocol:
HEp-2 cells and RSV (Group A, Long Strain) were obtained from the American Type Culture Collection (Manassas, Va.). Cytotoxicity of the compounds was determined in experiments done in parallel with the antiviral assays. To do this, 100 μL of assay medium was added to the wells of HEp-2 cells pretreated with 100 μL serially diluted compounds as described above. After 4 days of incubation, the viability of the cells was determined by the MTT assay in the same way as detailed in the “Antiviral Assay” method. Results were expressed as 50% toxicity dose (TD50) values. Compounds were tested to determine both their antiviral and toxicity to determine their therapeutic window. Determination of the EC50 and TD50 of these active compounds were repeated one additional time to confirm the window.

Where [2] appears, read: uninfected HEp-2 cells, 4 days incubation, MTT viability.

Broadly, the EC50 is the concentration giving half of the maximal effect. A high value points to weaker potency. Take `Cc1ccccc1CN(Cc1cccn1-c1nccs1)Cc1cccn1-c1nccs1` [Example 37, 1-(2-methylphenyl)-N,N-bis{[1-(1,3-thiazol-2-yl)-1H-pyrrol-2-yl]methyl}methanamine]: the EC50 in series [1] came to 33 nM. Further, in the series with HEp-2 cells (setting [2]), the “MTT TD50” value was 7.1 µM.

As to `Clc1cnc(CN(Cc2cccn2-c2nccs2)Cc2cccn2-c2nccs2)c(Cl)c1` [Example 38, 1-(3,5-dichloropyridin-2-yl)-N,N-bis{[1-(1,3-thiazol-2-yl)-1H-pyrrol-2-yl]methyl}methanamine], a half-maximal response in series [1] (EC50) required 310 nM. Moreover, the “MTT TD50” value in the series with HEp-2 cells (setting [2]) is 11 µM.

`CC(C)CN(Cc1cccn1-c1nccs1)Cc1cccn1-c1nccs1` [Example 39, 2-methyl-N,N-bis{[1-(1,3-thiazol-2-yl)-1H-pyrrol-2-yl]methyl}propan-1-amine] had an EC50 in series [1] of 3400 nM. Moreover, the “MTT TD50” value with HEp-2 cells (setting [2]) is 8.3 µM.

Molecule `Fc1ccccc1CN(Cc1cccn1-c1nccs1)Cc1cccn1-c1nccs1` [Example 40, 1-(2-fluorophenyl)-N,N-bis{[1-(1,3-thiazol-2-yl)-1H-pyrrol-2-yl]methyl}methanamine] registered an EC50 in series [1] of 18 nM. In addition, the “MTT TD50” value in the series on HEp-2 cells (setting [2]) is 6.3 µM.

Consider `Cc1c(C(C)N(Cc2cccn2-c2nccs2)Cc2ncc(-c3ccccc3)n2C)cnn1-c1cccc(F)c1` (centres unmarked) [Example 41, 1-[1-(3-fluorophenyl)-5-methyl-1H-pyrazol-4-yl]-N-[(1-methyl-5-phenyl-1H-imidazol-2-yl)methyl]-N-{[1-(1,3-thiazol-2-yl)-1H-pyrrol-2-yl]methyl}ethanamine], for which the EC50 in series [1] was more than 5600 nM. Also, in the series on HEp-2 cells (setting [2]), the “MTT TD50” value turned out to be 5.6 µM.

In the case of `Clc1ccc(CN(Cc2cccn2-c2nncs2)Cc2cccn2-c2nncs2)c(Cl)c1` [Example 42, 1-(2,4-dichlorophenyl)-N,N-bis{[1-(1,3,4-thiadiazol-2-yl)-1H-pyrrol-2-yl]methyl}methanamine], in series [1], the EC50 was more than 32000 nM. The “MTT TD50” value in the series with HEp-2 cells (setting [2]) was found to be 32 µM.

In series [1], `Cc1cc(N(Cc2cccn2-c2nncs2)Cc2cccn2-c2nncs2)n(-c2ccc(F)cc2)n1` [Example 43, 1-(4-fluorophenyl)-3-methyl-N,N-bis{[1-(1,3,4-thiadiazol-2-yl)-1H-pyrrol-2-yl]methyl}-1H-pyrazol-5-amine] registered an EC50 of more than 32000 nM. The “MTT TD50” value in the series on HEp-2 cells (setting [2]) is more than 32 µM.

In the case of `FC(F)(F)c1cccc(CN(Cc2cccn2-c2nccs2)Cc2cccn2-c2nccs2)c1` [Example 44, 1-[1-(1,3-thiazol-2-yl)-1H-pyrrol-2-yl]-N-{[1-(1,3-thiazol-2-yl)-1H-pyrrol-2-yl]methyl}-N-[3-(trifluoromethyl)benzyl]methanamine], in series [1], the half-maximal effective concentration (EC50) amounted to 120 nM. In the series with HEp-2 cells (setting [2]), the “MTT TD50” value came out at 38 µM.

`N#Cc1ccc(CN(Cc2cccn2-c2nccs2)Cc2cccn2-c2nccs2)cc1` [Example 45, 4-[(bis{[1-(1,3-thiazol-2-yl)-1H-pyrrol-2-yl]methyl}amino)methyl]benzonitrile] showed an EC50 in series [1] of 960 nM. Moreover, the “MTT TD50” value in the series with HEp-2 cells (setting [2]) was more than 32 µM.

Take `CC(c1ccc(Cl)c(Cl)c1)N(Cc1cccn1-c1nccs1)Cc1cccn1-c1nccs1` (centres unmarked) [Example 46, 1-(3,4-dichlorophenyl)-N,N-bis{[1-(1,3-thiazol-2-yl)-1H-pyrrol-2-yl]methyl}ethanamine]: the EC50 in series [1] amounted to 550 nM. Further, in the series with HEp-2 cells (setting [2]), the “MTT TD50” value was more than 32 µM.

For `Clc1ccccc1CN(Cc1cccn1-c1nccs1)Cc1cccn1-c1nccs1` [Example 47, 1-(2-chlorophenyl)-N,N-bis{[1-(1,3-thiazol-2-yl)-1H-pyrrol-2-yl]methyl}methanamine], the EC50 in series [1] was 15 nM. Moreover, the “MTT TD50” value with HEp-2 cells (setting [2]) was 7.0 µM.

`C[C@H](c1ccccc1Cl)N(Cc1cccn1-c1nccs1)Cc1cccn1-c1nccs1` [Example 48, (1R)-1-(2-chlorophenyl)-N,N-bis{[1-(1,3-thiazol-2-yl)-1H-pyrrol-2-yl]methyl}ethanamine] gave a half-maximal effective concentration (EC50) in series [1] of 110 nM. Further, the “MTT TD50” value in the series on HEp-2 cells (setting [2]) was 6.7 µM.

Consider `C[C@@H](c1ccccc1Cl)N(Cc1cccn1-c1nccs1)Cc1cccn1-c1nccs1` [Example 49, (1S)-1-(2-chlorophenyl)-N,N-bis{[1-(1,3-thiazol-2-yl)-1H-pyrrol-2-yl]methyl}ethanamine], for which, in series [1], the EC50 amounted to 45 nM. Moreover, in the series with HEp-2 cells (setting [2]), the “MTT TD50” value amounted to 4.3 µM.

As to `c1cnnc(N(Cc2cccn2-c2nccs2)Cc2cccn2-c2nccs2)c1` [Example 50, N,N-bis{[1-(1,3-thiazol-2-yl)-1H-pyrrol-2-yl]methyl}pyridazin-3-amine], the EC50 in series [1] was more than 100000 nM. For the same molecule, in the series on HEp-2 cells (setting [2]), the “MTT TD50” value is more than 100 µM.

Consider `c1ccc(C2(CCN(Cc3cccn3-c3nccs3)Cc3cccn3-c3nccs3)CC2)nc1` [Example 51, 2-[1-(pyridin-2-yl)cyclopropyl]-N,N-bis{[1-(1,3-thiazol-2-yl)-1H-pyrrol-2-yl]methyl}ethanamine], for which the EC50 in series [1] was 45 nM. Moreover, the “MTT TD50” value with HEp-2 cells (human, 4 days) is 6.2 µM.

`c1cc(CN(Cc2cccn2-c2nccs2)C2CCCCC2)n(-c2nccs2)c1` [Example 52, N,N-bis{[1-(1,3-thiazol-2-yl)-1H-pyrrol-2-yl]methyl}cyclohexanamine] returned an EC50 in series [1] of 100 nM. In addition, in the series on HEp-2 cells (setting [2]), the “MTT TD50” value came to 7.2 µM.

`c1ccc(N(Cc2cccn2-c2nccs2)Cc2cccn2-c2nccs2)cc1` [Example 53, N,N-bis{[1-(1,3-thiazol-2-yl)-1H-pyrrol-2-yl]methyl}aniline]: the midpoint of the response in series [1], the EC50, lay at 2700 nM. For the same molecule, the “MTT TD50” value in the series with HEp-2 cells (setting [2]) is more than 32 µM.

With `FC(F)(F)c1ccc(CN(Cc2cccn2-c2nncs2)Cc2cccn2-c2nncs2)cc1` [Example 54, 1-[1-(1,3,4-thiadiazol-2-yl)-1H-pyrrol-2-yl]-N-{[1-(1,3,4-thiadiazol-2-yl)-1H-pyrrol-2-yl]methyl}-N-[4-(trifluoromethyl)benzyl]methanamine], in series [1], the EC50 was more than 21000 nM. Also, the “MTT TD50” value in the series on HEp-2 cells (setting [2]) is 21 µM.

As for `Clc1cccc(Cl)c1CN(Cc1cccn1-c1nncs1)Cc1cccn1-c1nncs1` [Example 55, 1-(2,6-dichlorophenyl)-N,N-bis{[1-(1,3,4-thiadiazol-2-yl)-1H-pyrrol-2-yl]methyl}methanamine], in series [1], the EC50 is more than 32000 nM. Moreover, in the series with HEp-2 cells (setting [2]), the “MTT TD50” value is more than 32 µM.

Take `N#Cc1ccc(CN(Cc2cccn2-c2nncs2)Cc2cccn2-c2nncs2)cc1` [Example 56, 4-[(bis{[1-(1,3,4-thiadiazol-2-yl)-1H-pyrrol-2-yl]methyl}amino)methyl]benzonitrile]: the EC50 in series [1] amounted to 46000 nM. Also, the “MTT TD50” value in the series on HEp-2 cells (setting [2]) was more than 100 µM.

On to `FC1(F)CCC(CN(Cc2cccn2-c2nccs2)Cc2cccn2-c2nccs2)CC1` [Example 57, 1-(4,4-difluorocyclohexyl)-N,N-bis{[1-(1,3-thiazol-2-yl)-1H-pyrrol-2-yl]methyl}methanamine], for which the concentration for a half-maximal effect (EC50) in series [1] was 310 nM. For the same molecule, the “MTT TD50” value in the series with HEp-2 cells (setting [2]) was determined as 20 µM.

For the molecule `FC(F)(F)Cn1cc(CN(Cc2cccn2-c2nccs2)Cc2cccn2-c2nccs2)cn1` [Example 58, 1-[1-(1,3-thiazol-2-yl)-1H-pyrrol-2-yl]-N-{[1-(1,3-thiazol-2-yl)-1H-pyrrol-2-yl]methyl}-N-{[1-(2,2,2-trifluoroethyl)-1H-pyrazol-4-yl]methyl}methanamine], a half-maximal response in series [1] (EC50) required 520 nM. Also, the “MTT TD50” value in the series on HEp-2 cells (setting [2]) worked out at 49 µM.

Turning to `FC(F)n1ccnc1CN(Cc1cccn1-c1nccs1)Cc1cccn1-c1nccs1` [Example 59, 1-[1-(difluoromethyl)-1H-imidazol-2-yl]-N,N-bis{[1-(1,3-thiazol-2-yl)-1H-pyrrol-2-yl]methyl}methanamine], in series [1], the response was half-maximal at 4100 nM (EC50). Moreover, the “MTT TD50” value with HEp-2 cells (setting [2]) was determined as 35 µM.

As for `c1cncc(C2(CCN(Cc3cccn3-c3nccs3)Cc3cccn3-c3nccs3)CC2)c1` [Example 60, 2-[1-(pyridin-3-yl)cyclopropyl]-N,N-bis{[1-(1,3-thiazol-2-yl)-1H-pyrrol-2-yl]methyl}ethanamine], in series [1], a half-maximal effect (EC50) was put at 850 nM. Moreover, in the series on HEp-2 cells (setting [2]), the “MTT TD50” value is more than 100 µM.

For `c1cc(CN(Cc2cccn2-c2nncs2)C[C@H]2CCOC2)n(-c2nncs2)c1` [Example 61, 1-[(3R)-tetrahydrofuran-3-yl]-N,N-bis{[1-(1,3,4-thiadiazol-2-yl)-1H-pyrrol-2-yl]methyl}methanamine], the EC50 in series [1] is more than 100000 nM. In addition, the “MTT TD50” value with HEp-2 cells (setting [2]) is more than 100 µM.

For the origin of these results see patent US10233179B2, “Thiazoles and uses thereof” (AbbVie Inc., priority 2013, dated 2019).
